Molecules are shown by their SMILES. Several values for one entry are separate records, joined by “and”; a condition that tells them apart may be missing. Equal values may be shown once. Where a name gives a salt, the structure may show the parent alone.

The test system of assay [1] is FMLP-stimulated human neutrophils (superoxide generation). Nature of the assay: Human neutrophil superoxide generation (FMLP-stimulated, cytochrome C reduction). The assay is classed as cell-based. The conditions noted are these: for Stimulation of FMLP Induced Superoxide: concentrations at which compound stimulates: "Stimulates at" concentration range; for activation at 5 µM / activation at 10 µM: read-out: Stimulation of FMLP Induced Superoxide, above control. As to the method: The compounds of the invention are evaluated with respect to superoxide modulating activity according to the following assay procedure:
Human neutrophil superoxide generation: Superoxide generation by formyl-methionyl-leucyl-phenylalanine (FMLP)-stimulated neutrophils was quantitated by the reduction of cytochrome C (Badwey, J. A., Curnutte, J. T. and Karnovsky, M. L., cis-Polyunsaturated fatty acids induce high levels of superoxide production by human neutrophils. J. Biol. Chem. 256: 12640-12643, 1981.) To 5 million neutrophils in 2.85 ml of KrebsRinger phosphate buffer, pH 7.2, 50 ul of inhibitor (in 10% DMSO/buffer), and 50 ul ferricytochrome C (5 mM, stock) were added and preincubated for 3 minutes at 37° C. Absorption measurements at 550 nm were recorded at start of preincubation. Fifty ul FMLP (6 uM, stock) was added to initiate reaction. A plateau was reached within 3 minutes and this reading--initial reading (before addition of FMLP) was used to calculate nanomoles of superoxide generated based on a molar extinction coefficient of 2.1×10^4 cm^-1 mole^-1.
Isolation of human neutrophils: Human neutrophils were isolated from freshly drawn blood of healthy donors. Two ml of 5% dextran (MW 200,000-300,000) in saline was added to 10 ml aliquots of blood, mixed and placed upright for 45 min. at 37° C. Approx. 8-10 ml of the plasma-white cell suspension from the dextran sedimentation was layered on 3 ml of Ficol-paque in a 15 ml tube and centrifuged at 400 g for 30 min. The supernate, containing plasma and platelets, was discarded by aspiration, and the pellet, containing predominantly neutrophils, was resuspended in 1 ml saline. The suspension was transferred to a clean tube, and pooled with other aliquots of blood treated similarly. The pooled suspension was centrifuged at 350 g for 5 min. and supernate discarded. The pellet was resuspended in 5 ml of 0.05% NaCl with a plastic Pasteur pipette for 25 seconds to lyse contaminating red cells, then 5 ml of 1.75% NaCl added to regain isotonicity. The red cell lysing procedure was repeated, the cells suspended in appropriate buffer (depending on assay) and counted.
For comparison the compound of Formula IV, a known 5-lipoxygenase inhibitor described in U.S. Pat. No. 4,755,524 was used. [drawing 20] (±)[2S*-[[3.5-bis(1,1-dimethylethyl)-4-hydroxyphenyl]thio]-1R*-methylpro poxy]acetic acid

Assay [2] deals with T1, 5-lipoxygenase (Rattus norvegicus, UniProt P12527).
T1 construct: supernatant fraction of Rat Basophilic Leukemia Cell Homogenate (RBL-1) serves as a 5-lipoxygenase enzyme source; endogenous in cells; host or cells: RBL-1 (rat basophilic leukemia) cells, 100,000×g supernatant of homogenate
T1 sequence (P12527 1-673): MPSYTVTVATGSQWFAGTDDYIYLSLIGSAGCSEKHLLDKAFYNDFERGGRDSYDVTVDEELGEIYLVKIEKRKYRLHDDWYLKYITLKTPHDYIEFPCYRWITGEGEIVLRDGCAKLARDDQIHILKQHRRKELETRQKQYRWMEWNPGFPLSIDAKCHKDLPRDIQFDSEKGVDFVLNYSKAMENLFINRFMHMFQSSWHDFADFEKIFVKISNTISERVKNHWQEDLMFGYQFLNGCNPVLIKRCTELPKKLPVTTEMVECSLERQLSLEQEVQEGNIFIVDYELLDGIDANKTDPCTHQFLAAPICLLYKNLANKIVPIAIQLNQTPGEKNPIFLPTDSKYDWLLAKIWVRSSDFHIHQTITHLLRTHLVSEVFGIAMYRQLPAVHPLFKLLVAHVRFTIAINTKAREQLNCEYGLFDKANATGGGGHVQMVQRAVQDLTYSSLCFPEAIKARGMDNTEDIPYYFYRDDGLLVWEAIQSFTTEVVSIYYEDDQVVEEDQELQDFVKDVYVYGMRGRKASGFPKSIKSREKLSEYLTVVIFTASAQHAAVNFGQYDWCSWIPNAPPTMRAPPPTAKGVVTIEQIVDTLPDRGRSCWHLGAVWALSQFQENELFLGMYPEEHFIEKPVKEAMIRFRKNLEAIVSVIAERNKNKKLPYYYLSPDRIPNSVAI
Nature of the assay: Inhibition of 5-lipoxygenase, in vitro (5-HETE synthesis by RBL-1 100,000×g supernatant). Format: biochemical. Conditions: for IC50: RBL-1 homogenate supernatant, 5-HETE synthesis. As to the method:
The compounds of the invention are evaluated with respect to 5-lipoxygenaseinhibition according to the following assay procedure.
Inhibition of 5-lipoxygenase, in vitro:
anti-inflammatory, anti-allergy activities.
The 100,000×g supernatant fraction of Rat Basophilic Leukemia Cell Homogenate (RBL-1) serves as a 5-lipoxygenase enzyme source. The enzyme is incubated with [1-^14 C)-arachidonic acid and Ca++ in the presence and absence of test compound. The product of 5-lipoxygenase, 5-hydroxyeicosatetraenoic acid (5-HETE), is separated by thin-layer chromatography and measured by radioactivity. A compound inhibiting 5-HETE synthesis by 30% or more is considered active at that concentration.

Take `CC(C)C(O)CCSc1cc(C(C)(C)C)c(O)c(C(C)(C)C)c1` (centres unmarked) [Example 9, 2,6-bis(1,1-dimethylethyl)-4-[(3-hydroxy-4-methylpentyl)thio]phenol]: the “Stimulation of FMLP Induced Superoxide: concentrations at which compound stimulates” value (“Stimulation of FMLP Induced Superoxide” below) in assay [1] was in the range of 5 to 50 µM. Moreover, the IC50 in assay [2] was found to be 260 nM.

In the case of `CN(CCc1ccccn1)C(=O)CCSc1cc(C(C)(C)C)c(O)c(C(C)(C)C)c1` [Example 5, 3-[[3,5-bis(1,1-dimethylethyl)-4-hydroxyphenyl]thio]-N-methyl-N-[2-(2-pyridinyl)ethyl]propanamide monohydrochloride], in assay [1] (Homo sapiens, Neutrophil), the activation at 5 µM is 50% and the activation at 10 µM came out at 227%.

As for `Cc1cccc(C)c1NC(=O)CCSc1cc(C(C)(C)C)c(O)c(C(C)(C)C)c1` [Example 7, 3-[[3,5-bis(1,1-dimethylethyl)-4-hydroxyphenyl]thio]-N-(2,6-dimethylphenyl)propanamide], the “Stimulation of FMLP Induced Superoxide” value in assay [1] was 3 to 20 µM. The IC50 in assay [2] is 230 nM and 330 nM.

On to `CC(C)C(C)(O)CCSc1cc(C(C)(C)C)c(O)c(C(C)(C)C)c1` (centres unmarked) [Example 10, 2,6-bis(1,1-dimethylethyl)-4-[(3-hydroxy-3,4-dimethylpentyl)thio]phenol], for which, in assay [1], the “Stimulation of FMLP Induced Superoxide” value lay within 5 to 50 µM. In assay [2], this compound displayed an IC50 of 790 nM.

For `C[C@H](Sc1cc(C(C)(C)C)c(O)c(C(C)(C)C)c1)[C@@H](C)OCC(=O)O` (relative stereo) [Formula IV, (±)[2S*-[[3.5-bis(1,1-dimethylethyl)-4-hydroxyphenyl]thio]-1R*-methylpropoxy]acetic acid, reference compound], in assay [1] (Homo sapiens, Neutrophil, inhibition of FMLP induced superoxide, read-out: Inhibited superoxide generation, IC50), the IC50 was found to be 11 µM. Besides, the “Effect on superoxide generation (in words)” value in assay [1] (neutrophils) was “inhibited both superoxide generation and 5-lipoxygenase”. In addition, the “Effect on 5-lipoxygenase (in words)” value in assay [2] is “inhibited both superoxide generation and 5-lipoxygenase”.

`CC(C)(C)c1cc(SCCC(=O)N2CCN(Cc3ccccc3)CC2)cc(C(C)(C)C)c1O` [Example 8, 1-[3-[[3,5-Bis(1,1-dimethylethyl)4-hydroxyphenyl]thio]-1-oxopropyl]-4-(phenylmethyl)piperazine]: in assay [1] (Homo sapiens, Neutrophil), the activation at 5 µM worked out at 150% and the activation at 10 µM turned out to be 206%. The IC50 in assay [2] came to 160 nM.

Values taken from patent US5189038A, “Method of stimulating superoxide generation” (G. D. Searle and Co., priority 1991, dated 1993).
